Experimental data as given in US20110201818A1, “POLO-LIKE KINASE INHIBITORS” (TAKEDA PHARMACEUTICAL COMPANY LIMITED, priority 2007, published 2011).

Each molecule was assayed against T1, human PLK1 (Homo sapiens, UniProt P53350) (assay: PLK1 in vitro enzymatic activity assay (phosphorylation of alpha casein by recombinant PLK1)). Details: recombinant FLAG-tagged PLK1, alpha casein substrate, 500 nmol/L ATP, 40 min at room temperature; read-out: pIC50 (PLK1) (converted).
T1 construct: FLAG (DYKDDDDK) (N); made in house; host or cells: Sf21 insect cells, recombinant baculovirus (pFASTBAC1, Bac-to-Bac)
Assay type: biochemical
Method: PCR was performed using the vector as a template. […] After XbaI and XhoI digestion of the PCR product, the fragment was subcloned into pFASTBAC1 (Invitrogen, USA). Recombinant baculoviruses were prepared according to the procedure of the Bac-to-Bac baculovirus expression system (Invitrogen, USA). Sf21 cells were purchased from Invitrogen and grown in Sf-900 II SFM medium containing 10% fetal bovine serum, 50 μg/mL gentamicin and 0.1% pluronic F-68 (Invitrogen, USA) at 28° C. For preparation of PLK1 enzyme, Sf21 cells were infected with recombinant baculoviruses and cultured at 28° C. for 72 h.
The inhibition of PLK1 by the compounds was determined with the following assay that measures the phosphorylation of alpha casein by recombinant PLK1. Kinase reactions were performed at room temperature for 40 min in the kinase reaction buffer (25 mmol/L HEPES, pH 7.5, 10 mmol/L magnesium acetate, 1 mmol/L dithiothreitol) containing 50 ng PLK1 enzyme, 0.1 μCi [γ-^32P]ATP, 500 nmol/L ATP and 3 μg alpha casein (MP Biomedicals Inc., USA) in a final volume of 50 μL. The incubation was terminated by the addition of 10% trichloroacetic acid (Wako, Japan). Phosphorylated proteins were filtrated in GF/C filter plates (Packard, USA) with a Cell harvester (Packard, USA) and washed out free [γ-^32P]-ATP with 250 mmol/L phosphoric acid. Then, the plates were air dried for 60 min at 45° C., followed by the addition of 20 μL of MicroScint-O (Packard, USA). The radioactivity was counted by a Top-count scintillation counter (Packard, USA).

T1 sequence (P53350 with tags, fused parts or gaps): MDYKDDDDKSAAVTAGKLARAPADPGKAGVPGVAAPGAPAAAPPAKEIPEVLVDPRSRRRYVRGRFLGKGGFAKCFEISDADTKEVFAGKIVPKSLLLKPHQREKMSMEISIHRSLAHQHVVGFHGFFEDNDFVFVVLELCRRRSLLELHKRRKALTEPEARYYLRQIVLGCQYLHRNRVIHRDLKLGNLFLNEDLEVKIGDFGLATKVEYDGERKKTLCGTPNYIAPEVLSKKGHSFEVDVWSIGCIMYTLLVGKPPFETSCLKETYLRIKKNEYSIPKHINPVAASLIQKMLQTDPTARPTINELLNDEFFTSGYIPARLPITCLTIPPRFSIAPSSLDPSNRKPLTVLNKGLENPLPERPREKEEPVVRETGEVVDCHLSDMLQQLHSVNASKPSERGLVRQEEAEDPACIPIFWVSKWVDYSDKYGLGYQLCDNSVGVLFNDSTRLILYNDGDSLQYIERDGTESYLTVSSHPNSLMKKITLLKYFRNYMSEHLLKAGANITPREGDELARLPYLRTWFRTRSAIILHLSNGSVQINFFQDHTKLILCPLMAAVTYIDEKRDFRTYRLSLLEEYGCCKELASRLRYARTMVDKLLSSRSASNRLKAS

SMILES	IC50 [nM]
COc1cc(C(=O)NN2CCCCC2)ccc1Nc1ncc2c(n1)N(C1CCCCC1)CC(F)(F)C(=O)N2C [Compound 64, 4-(9-cyclohexyl-7,7-difluoro-5-methyl-6-oxo-6,7,8,9-tetrahydro-5H-pyrimido[4,5-b][1,4]diazepin-2-ylamino)-3-methoxy-N-(piperidin-1-yl)benzamide]	≤ 2
COc1cc(C(=O)N[C@H]2CC[C@H](O)CC2)ccc1Nc1ncc2c(n1)N(C1CCCCC1)CC(F)(F)C(=O)N2C [Compound 40, 4-(9-cyclohexyl-7,7-difluoro-5-methyl-6-oxo-6,7,8,9-tetrahydro-5H-pyrimido[4,5-b][1,4]diazepin-2-ylamino)-N-((1r,4r)-4-hydroxycyclohexyl)-3-methoxybenzamide]	≤ 2
COc1cc(C(=O)NCCN2CCCC2)ccc1Nc1ncc2c(n1)N(C1CCCCC1)CC(F)(F)C(=O)N2C [Compound 56, 4-(9-cyclohexyl-7,7-difluoro-5-methyl-6-oxo-6,7,8,9-tetrahydro-5H-pyrimido[4,5-b][1,4]diazepin-2-ylamino)-3-methoxy-N-(2-(pyrrolidin-1-yl)ethyl)benzamide]	> 2
COc1cc(C(=O)N[C@H]2CN3CCC2CC3)ccc1Nc1ncc2c(n1)N(C1CCCCC1)CC(F)(F)C(=O)N2C [Compound 45, (R)-4-(9-cyclohexyl-7,7-difluoro-5-methyl-6-oxo-6,7,8,9-tetrahydro-5H-pyrimido[4,5-b][1,4]diazepin-2-ylamino)-3-methoxy-N-(quinuclidin-3-yl)benzamide]	≤ 2
CCN1CCC(NC(=O)c2ccc(Nc3ncc4c(n3)N(C3CCCC3)CC(F)(F)C(=O)N4C)c(OC)c2)CC1 [Compound 7, 4-(9-cyclopentyl-7,7-difluoro-5-methyl-6-oxo-6,7,8,9-tetrahydro-5H-pyrimido[4,5-b][1,4]diazepin-2-ylamino)-N-(1-ethylpiperidin-4-yl)-3-methoxybenzamide]	> 2
COc1cc(C(=O)NCCCN(C)C)ccc1Nc1ncc2c(n1)N(C1CCCCC1)CC(F)(F)C(=O)N2C [Compound 54, 4-(9-cyclohexyl-7,7-difluoro-5-methyl-6-oxo-6,7,8,9-tetrahydro-5H-pyrimido[4,5-b][1,4]diazepin-2-ylamino)-N-(3-(dimethylamino)propyl)-3-methoxybenzamide]	> 2
CN1CCC(NC(=O)c2ccc(Nc3ncc4c(n3)N(C3CCCC3)CC(F)(F)C(=O)N4C)c(C(F)(F)F)c2)CC1 [Compound 30, 4-(9-cyclopentyl-7,7-difluoro-5-methyl-6-oxo-6,7,8,9-tetrahydro-5H-pyrimido[4,5-b][1,4]diazepin-2-ylamino)-N-(1-methylpiperidin-4-yl)-3-(trifluoromethyl)benzamide]	> 2
CNC(=O)c1ccc(Nc2ncc3c(n2)N(C2CCCCC2)CC(F)(F)C(=O)N3C)c(OC)c1 [Compound 60, 4-(9-cyclohexyl-7,7-difluoro-5-methyl-6-oxo-6,7,8,9-tetrahydro-5H-pyrimido[4,5-b][1,4]diazepin-2-ylamino)-3-methoxy-N-methylbenzamide]	≤ 2
COc1cc(C(=O)N[C@@H]2CCCN(C)C2)ccc1Nc1ncc2c(n1)N(C1CCCCC1)CC(F)(F)C(=O)N2C [Compound 75, (R)-4-(9-cyclohexyl-7,7-difluoro-5-methyl-6-oxo-6,7,8,9-tetrahydro-5H-pyrimido[4,5-b][1,4]diazepin-2-ylamino)-3-methoxy-N-(1-methylpiperidin-3-yl)benzamide]	≤ 2
COc1cc(C(=O)NC2CCCNCC2)ccc1Nc1ncc2c(n1)N(C1CCCCC1)CC(F)(F)C(=O)N2C (stereo not drawn) [Compound 42, N-(azepan-4-yl)-4-(9-cyclohexyl-7,7-difluoro-5-methyl-6-oxo-6,7,8,9-tetrahydro-5H-pyrimido[4,5-b][1,4]diazepin-2-ylamino)-3-methoxybenzamide]	≤ 2
CN1C(=O)C(F)(F)CN(C2CCCC2)c2nc(Nc3ccc4c(c3)NC(=O)C4)ncc21 [Compound 19, 9-cyclopentyl-7,7-difluoro-5-methyl-2-(2-oxoindolin-6-ylamino)-8,9-dihydro-5H-pyrimido[4,5-b][1,4]diazepin-6(7H)-one]	> 2
CN(C)CCOc1ccc(Nc2ncc3c(n2)N(C2CCCC2)CC(F)(F)C(=O)N3C)cc1 [Compound 17, 9-cyclopentyl-2-(4-(2-(dimethylamino)ethoxy)phenylamino)-7,7-difluoro-5-methyl-8,9-dihydro-5H-pyrimido[4,5-b][1,4]diazepin-6(7H)-one]	> 2
CN1CCC(NC(=O)c2ccc(Nc3ncc4c(n3)N(C3CCCC3)CC(F)(F)C(=O)N4C)c(OC(F)(F)F)c2)CC1 [Compound 25, 4-(9-Cyclopentyl-7,7-difluoro-5-methyl-6-oxo-6,7,8,9-tetrahydro-5H-pyrimido[4,5-b][1,4]diazepin-2-ylamino)-N-(1-methylpiperidin-4-yl)-3-(trifluoromethoxy)-benzamide]	> 2
COc1cc(C(=O)N[C@H]2CCCN(C)C2)ccc1Nc1ncc2c(n1)N(C1CCCCC1)CC(F)(F)C(=O)N2C [Compound 74, (S)-4-(9-cyclohexyl-7,7-difluoro-5-methyl-6-oxo-6,7,8,9-tetrahydro-5H-pyrimido[4,5-b][1,4]diazepin-2-ylamino)-3-methoxy-N-(1-methylpiperidin-3-yl)benzamide]	≤ 2

Next, values leading:

IC50 [nM]	SMILES
> 2	COc1cc(C(=O)NC2CCN(C)CC2)ccc1Nc1ncc2c(n1)N(C1CCCC1)CC(F)(C(F)(F)F)C(=O)N2C (stereo not drawn) [Compound 85, 4-(9-cyclopentyl-7-fluoro-5-methyl-6-oxo-7-(trifluoromethyl)-6,7,8,9-tetrahydro-5H-pyrimido[4,5-b][1,4]diazepin-2-ylamino)-3-methoxy-N-(1-methylpiperidin-4-yl)benzamide]
> 2	COc1cc(CO)ccc1Nc1ncc2c(n1)N(C1CCCC1)CC(F)(F)CN2C [Compound 137, (4-(9-cyclopentyl-7,7-difluoro-5-methyl-6,7,8,9-tetrahydro-5H-pyrimido[4,5-b][1,4]diazepin-2-ylamino)-3-methoxyphenyl)methanol]
> 2	CCC1(F)CN(C2CCCCC2)c2nc(Nc3ccc(C(=O)NC4CCN(C)CC4)cc3OC)ncc2N(C)C1=O (stereo not drawn) [Compound 96, 4-(9-Cyclohexyl-7-ethyl-7-fluoro-5-methyl-6-oxo-6,7,8,9-tetrahydro-5H-pyrimido[4,5-b][1,4]diazepin-2-ylamino)-3-methoxy-N-(1-methylpiperidin-4-yl)benzamide]
≤ 2	COc1cc(C(=O)NC2CC2)ccc1Nc1ncc2c(n1)N(C1CCCCC1)CC(F)(F)C(=O)N2C [Compound 76, 4-(9-cyclohexyl-7,7-difluoro-5-methyl-6-oxo-6,7,8,9-tetrahydro-5H-pyrimido[4,5-b][1,4]diazepin-2-ylamino)-N-cyclopropyl-3-methoxybenzamide]
≤ 2	COc1cc(C(=O)NN2CCNCC2)ccc1Nc1ncc2c(n1)N(C1CCCCC1)CC(F)(F)C(=O)N2C [Compound 77, 4-(9-cyclohexyl-7,7-difluoro-5-methyl-6-oxo-6,7,8,9-tetrahydro-5H-pyrimido[4,5-b][1,4]diazepin-2-ylamino)-3-methoxy-N-(piperazin-1-yl)benzamide]
> 2	C=C[C@@]1(F)CN(C2CCCC2)c2nc(Nc3ccc(C(=O)NC4CCN(CCO)CC4)cc3OC)ncc2N(C)C1=O [Compound 106, (R)-4-(9-cyclopentyl-7-fluoro-5-methyl-6-oxo-7-vinyl-6,7,8,9-tetrahydro-5H-pyrimido[4,5-b][1,4]diazepin-2-ylamino)-N-(1-(2-hydroxyethyl)piperidin-4-yl)-3-methoxybenzamide]
> 2	C=C[C@@]1(F)CN(C2CCCC2)c2nc(Nc3ccc(C(=O)N[C@@H]4CCCNC4)cc3OC)ncc2N(C)C1=O [Compound 107, 4-((R)-9-cyclopentyl-7-fluoro-5-methyl-6-oxo-7-vinyl-6,7,8,9-tetrahydro-5H-pyrimido[4,5-b][1,4]diazepin-2-ylamino)-3-methoxy-N—((R)-piperidin-3-yl)benzamide]
≤ 2	CCN1CC(NC(=O)c2cc(OC)c(Nc3ncc4c(n3)N(C3CCCC3)CC(F)(F)C(=O)N4C)cc2F)C1 [Compound 131, 4-(9-cyclopentyl-7,7-difluoro-5-methyl-6-oxo-6,7,8,9-tetrahydro-5H-pyrimido[4,5-b][1,4]diazepin-2-ylamino)-N-(1-ethylazetidin-3-yl)-2-fluoro-5-methoxybenzamide]
≤ 2	C=CC1(F)CN(C2CCCC2)c2nc(Nc3ccc(C(=O)NC4CN(C)C4)cc3OC)ncc2N(C)C1=O (stereo not drawn) [Compound 100, 4-(9-cyclopentyl-7-fluoro-5-methyl-6-oxo-7-vinyl-6,7,8,9-tetrahydro-5H-pyrimido[4,5-b][1,4]diazepin-2-ylamino)-3-methoxy-N-(1-methylazetidin-3-yl)benzamide]
> 2	COc1ccc(F)cc1Nc1ncc2c(n1)N(C1CCCC1)CC(F)(F)C(=O)N2C [Compound 120, 9-Cyclopentyl-7,7-difluoro-2-(5-fluoro-2-methoxyphenylamino)-5-methyl-8,9-dihydro-5H-pyrimido[4,5-b][1,4]diazepin-6(7H)-one]
